Columns and labels:
CX3CL1 = CX3CL1 expression in human macrophages; type: cell-based; details: 1 μM
TLR2 signaling = test: Pam3Cys-activated TLR2 signaling in RAW264.7 cells; type: cell-based, mouse
Method: (§1) Because multiple TLRs signal through MD-2, […] and MyD-88, the specificity of the neurosteroid 3α,5α-THP on TLR2, TLRS and TLR7 signal activation was examined in RAW264.7 ceils (FIG. 7). Pam3Cys (10 μg/ml) activated TLR2 signaling, evidenced by increases in pCREB, pERK1/2, TRAF6 and pATF-2, that were sustained for 24 hrs and inhibited by 3α,5α-THP (1 μM) (50-60% compared to vehicle).

TLR7 signal = test: Imiquimod-activated TLR7 signaling in RAW264.7 cells; type: cell-based, mouse; details: 1 μM; imiquimod 1 μg/ml; 24 hours
Method: as §1

[1] = 3α,5α-THP radioimmunoassay of RAW264.7 cell culture media (conversion of pregnenolone); type: in vitro ADME, mouse
Method: 3α,5α-THP Radioimmunoassay (RIA), 3α,5α-THP concentrations in the RAW264.7 cell media were measured by radioimmunoassay as described elsewhere (VanDoren et al, 2000), modified for use with cell media (Cook et al, 2014), Briefly, 3α,5α-THP was extracted from ceil media three times with 3 ml of ethyl acetate and spiked with 1000 counts per minute of [^3H]3α,5α-THP for recovery. The extracts were purified using solid phase silica columns (Burdick and Jackson, Muskegon, Mich.) and used for the assay (run in duplicate) and for recovery measurement. Steroid levels in the samples were extrapolated from a concurrently run standard curve and corrected for their respective extraction efficiencies. The 3α,5α-THP antibody (1:500) was provided by the late Dr. Robert Purdy at Scripps Research Institute. […] The validity of the assay has been verified by gas chromatography mass spectrometry determinations (Porcu et al, 2010), 3α,5α-THP values are expressed as ng/ml of cell media.
Since pregnenolone is a precursor for 3α,5α-THP, the possibility that pregnenolone may have been converted in the RAW264.7 cells was considered by analysis of 3α,5α-THP levels in the cell culture media at the time of cell harvest, 3α,5α-THP was detected at less than 0.69±0.11 nmol/L, indicative of less than 0.1% conversion of 1.0 μM pregnenolone.

| SMILES | expression of the anti-inflammatory cytokine CX3CL1 (CX3CL1) | effect of Pam3Cys on pCREB, pERK1/2, pATF2 and TRAF6 (TLR2 signaling; 1 μM, Pam3Cys 10 μg/ml, harvested after 24 hrs) | inhibition at 1 µM (TLR2 signaling; Mus musculus, RAW264.7, Pam3Cys 10 μg/ml, 24 hrs, compared to vehicle, read-out: inhibition of Pam3Cys-induced increases in pCREB, pERK1/2, TRAF6 and pATF-2) [%] | effect of imiquimod on pIRF7 (TLR7 signal) | conversion of pregnenolone to 3α,5α-THP ([1]; 1.0 μM pregnenolone, RAW264.7 cells) | 3α,5α-THP level in the cell culture media at the time of cell harvest ([1]; RAW264.7 cells treated with 1.0 μM pregnenolone) |
| --- | --- | --- | --- | --- | --- | --- |
| CC(=O)[C@H]1CC[C@H]2[C@@H]3CC[C@H]4C[C@H](O)CC[C@]4(C)[C@H]3CC[C@]12C [3α,5α-THP, (3α,5α)3-hydroxypregnan-20-one] | increases expression | completely inhibited | 50 to 60 | completely inhibited | – | – |
| CC(=O)[C@H]1CC[C@H]2[C@@H]3CC=C4C[C@@H](O)CC[C@]4(C)[C@H]3CC[C@]12C [pregnenolone] | – | – | – | – | less than 0.1% | less than 0.69±0.11 nmol/L |

Source: patent US20210205329A1 (The University of North Carolina at Chapel Hill, priority 2018, published 2021)
